# Laboratory results published in ChEMBL document CHEMBL1157041, “Support vector machines: development of QSAR models for predicting anti-HIV-1 activity of TIBO derivatives” (Eur J Med Chem, 2010).
# System: Human immunodeficiency virus 1
# Assay: Antiviral activity against HIV1 infected in human MT4 cells assessed as protection against virus-induced cytopathic effect
# Assay type: functional, organism-based
# Settings: Human immunodeficiency virus 1, MT4
row,IC50,SMILES
1,34.7 µM,C/C=C\CN1Cc2cccc3[nH]c(=O)n(c23)C[C@@H]1C
2,37.2 µM,C=C(CC)CN1Cc2cccc3[nH]c(=O)n(c23)C[C@@H]1C
3,56.2 µM,CC(C)=CCN1C(C)c2cccc3[nH]c(=O)n(c23)[C@@H](C)[C@H]1C (relative stereo)
4,46.8 µM,C=C(C)CN1Cc2cccc3[nH]c(=O)n(c23)C[C@@H]1C
5,60.3 µM,CCCN1Cc2cccc3[nH]c(=O)n(c23)CC1C (stereo not given)
6,0.0417 µM,CC(C)=CCN1[C@@H](C)Cn2c(=S)[nH]c3cccc(c32)[C@@H]1C (relative stereo)
7,31.6 µM,C=C(C)CN1Cc2cccc3[nH]c(=O)n(c23)C(C)C1 (stereo not given)
8,50.1 µM,C=CCCN1Cc2cccc3[nH]c(=O)n(c23)C[C@@H]1C
9,575 µM,C#CCN1Cc2cccc3[nH]c(=O)n(c23)C[C@@H]1C
10,34.7 µM,C=C(C)CN1Cc2cccc3[nH]c(=O)n(c23)CC1C (stereo not given)
11,100 µM,CCCCN1Cc2cccc3[nH]c(=O)n(c23)C[C@@H]1C
12,28.8 µM,C/C=C(\C)CN1Cc2cccc3[nH]c(=O)n(c23)C[C@@H]1C
13,70.8 µM,C=CCN1Cc2cccc3[nH]c(=O)n(c23)C[C@@H]1C
14,12.6 µM,CC(C)=CCN1Cc2cccc3nc(O)n(c23)C[C@@H]1C
15,43.7 µM,C[C@H]1Cn2c(=O)[nH]c3cccc(c32)CN1CC1CC1
16,851 µM,COC(=O)CN1Cc2cccc3[nH]c(=O)n(c23)C[C@@H]1C
17,89.1 µM,CCCN1Cc2cccc3[nH]c(=O)n(c23)C[C@@H]1C
18,13.5 µM,CC1c2cccc3[nH]c(=S)n(c23)[C@@H](C)[C@H](C)N1CC1CC1 (stereo not given in full)
19,2.24 µM,CC(C)=CCN1C(C)c2cccc3[nH]c(=S)n(c23)[C@@H](C)[C@H]1C (relative stereo)
20,70.8 µM,C=CC(=C)CN1Cc2cccc3[nH]c(=O)n(c23)C[C@@H]1C
21,57.5 µM,C/C=C/CN1Cc2cccc3[nH]c(=O)n(c23)C[C@@H]1C
22,2.19 µM,C[C@@H]1CN(CC2CC2)Cc2cc(Cl)cc3[nH]c(=S)n1c23
23,123 µM,C[C@H]1Cn2c(=O)[nH]c3cccc(c32)CN1C/C=C\c1ccccc1
24,1.15 µM,CC(C)=CCN1[C@H](C)Cn2c(=S)[nH]c3cccc(c32)[C@@H]1C
25,0.0251 µM,CC(C)=CCN1Cc2cc(Cl)c(Cl)c3nc(S)n(c23)C[C@@H]1C
26,1.66 µM,CCCN1Cc2cccc3[nH]c(=S)n(c23)CC1C (stereo not given)
27,61.7 µM,C=C(Br)CN1Cc2cccc3[nH]c(=O)n(c23)C[C@@H]1C
28,107 µM,C[C@H]1Cn2c(=O)[nH]c3cccc(c32)CN1Cc1ccco1

# Same assay, conditions: mt4
row,pIC50,SMILES
1,7.01,CC(C)=CCN1Cc2cccc3[nH]c(=S)n(c23)C[C@@H]1C (stereo in doubt; 81)
2,7.36,CC(C)=CCN1Cc2cccc3[nH]c(=S)n(c23)C[C@@H]1C (stereo in doubt; 1)
